Measured values from ChEMBL document CHEMBL1128849, “Synthesis and antibacterial activity of men 10700, a new penem antibiotic” (1995).
≈ marks a conversion by molar mass, not a printed value.

Key:
[1] = system: Staphylococcus aureus; experiment: In vitro antibacterial activity against Staphylococcus aureus MR13; assay type: functional
[2] = system: Escherichia coli; experiment: In vitro antibacterial activity against Escherichia. coli L; assay type: functional
[3] = system: Staphylococcus aureus; experiment: In vitro antibacterial activity against Staphylococcus aureus ATCC 25923; assay type: functional
[4] = system: Staphylococcus aureus; experiment: In vitro antibacterial activity against Staphylococcus aureus ATCC 29213; assay type: functional
[5] = system: Pseudomonas aeruginosa; experiment: In vitro antibacterial activity against Pseudomonas aeruginosa G242; assay type: functional
[6] = system: Escherichia coli; experiment: In vitro antibacterial activity against Escherichia. coli DC2; assay type: functional
[7] = system: Escherichia coli; experiment: In vitro antibacterial activity against Escherichia. coli TEM1; assay type: functional
[8] = system: Pseudomonas aeruginosa; experiment: In vitro antibacterial activity against Pseudomonas aeruginosa VR5; assay type: functional
[9] = system: Enterococcus faecalis; experiment: In vitro antibacterial activity against Enterococcus faecalis ATCC 29212; assay type: functional
[10] = system: Staphylococcus aureus; experiment: In vitro antibacterial activity against Staphylococcus aureus MR09; assay type: functional
[11] = system: Escherichia coli; experiment: In vitro antibacterial activity against Escherichia. coli SHV; assay type: functional
[12] = system: Pseudomonas aeruginosa; experiment: In vitro antibacterial activity against Pseudomonas aeruginosa ATCC 27853; assay type: functional
[13] = system: Escherichia coli; experiment: In vitro antibacterial activity against Escherichia. coli TEM2; assay type: functional
[14] = system: Escherichia coli; experiment: In vitro antibacterial activity against Escherichia. coli ATCC 25922; assay type: functional
[15] = system: Klebsiella pneumoniae; experiment: In vitro antibacterial activity against Klebsiella pneumoniae; assay type: functional
[16] = system: Staphylococcus aureus; experiment: In vitro antibacterial activity against Staphylococcus aureus MR; assay type: functional
[17] = system: Streptococcus pyogenes; experiment: In vitro antibacterial activity against Streptococcus pyogenes A; assay type: functional
[18] = system: Providencia rettgeri; experiment: In vitro antibacterial activity against Providencia rettgerii; assay type: functional
[19] = system: Pseudomonas aeruginosa; experiment: In vitro antibacterial activity against Pseudomonas aeruginosa; assay type: functional
[20] = system: Clostridium perfringens; experiment: In vitro antibacterial activity against Clostridium perfringens; assay type: functional
[21] = system: Escherichia coli; experiment: In vitro antibacterial activity against Escherichia coli; assay type: functional
[22] = system: Staphylococcus epidermidis; experiment: In vitro antibacterial activity against Staphylococcus epidermidis; assay type: functional
[23] = system: Moraxella catarrhalis; experiment: In vitro antibacterial activity against Branhamella catarrhalis; assay type: functional
[24] = system: Klebsiella aerogenes; experiment: In vitro antibacterial activity against Enterobacter aerogenes; assay type: functional
[25] = system: Streptococcus agalactiae; experiment: In vitro antibacterial activity against Streptococcus agalactiae B; assay type: functional
[26] = system: Citrobacter freundii; experiment: In vitro antibacterial activity against Citrobacter freundii; assay type: functional
[27] = system: Morganella morganii; experiment: In vitro antibacterial activity against Morganella morganii; assay type: functional
[28] = system: Pseudomonas aeruginosa; experiment: microbe, parasite or virus in culture; conditions: ATCC 27853
[29] = system: Bacteroides fragilis; experiment: In vitro antibacterial activity against Bacteroides fragilis; assay type: functional
[30] = system: Yersinia sp.; experiment: In vitro antibacterial activity against Yersinia species; assay type: functional, yersinia spp; conditions: Yersinia sp. (in: enterobacteria)
[31] = system: Providencia stuartii; experiment: In vitro antibacterial activity against Providencia stuartii; assay type: functional
[32] = system: Haemophilus influenzae; experiment: In vitro antibacterial activity against Haemophilus influenzae; assay type: functional
[33] = system: Listeria monocytogenes; experiment: In vitro antibacterial activity against Listeria monocytogenes; assay type: functional
[34] = system: Streptococcus pneumoniae; experiment: In vitro antibacterial activity against Streptococcus pneumoniae; assay type: functional
[35] = system: Enterococcus faecium; experiment: In vitro antibacterial activity against Enterococcus faecium; assay type: functional
[36] = system: Staphylococcus aureus; experiment: In vitro antibacterial activity against Staphylococcus aureus MS; assay type: functional
[37] = system: Proteus mirabilis; experiment: In vitro antibacterial activity against Proteus mirabilis; assay type: functional
[38] = system: Acinetobacter calcoaceticus subsp. anitratus; experiment: In vitro antibacterial activity against Acinetobacter anitratus; assay type: functional
[39] = system: Aeromonas sp.; experiment: In vitro antibacterial activity against Aeromonas species.; assay type: functional
[40] = system: Stenotrophomonas maltophilia; experiment: In vitro antibacterial activity against Xanthomonas maltophilia; assay type: functional
[41] = system: Enterococcus faecalis; experiment: In vitro antibacterial activity against Enterococcus faecalis; assay type: functional
[42] = system: Proteus vulgaris; experiment: In vitro antibacterial activity against Proteus vulgaris; assay type: functional

Structure (SMILES): C[C@@H](O)[C@H]1C(=O)N2C(C(=O)O)=C(COC(N)=O)S[C@H]12 [RITIPENEM]
- MIC [1]: 0.12 µg/mL (≈ 0.416 µM)
- MIC [2]: 1 µg/mL (≈ 3.47 µM)
- MIC [3]: 0.06 µg/mL (≈ 0.208 µM)
- MIC [4]: 0.12 µg/mL (≈ 0.416 µM)
- MIC [5]: 1 µg/mL (≈ 3.47 µM)
- MIC [6]: 1 µg/mL (≈ 3.47 µM)
- MIC [7]: 1 µg/mL (≈ 3.47 µM)
- MIC [8]: 0.5 µg/mL (≈ 1.73 µM)
- MIC [9]: 2 µg/mL (≈ 6.94 µM)
- MIC [10]: 2 µg/mL (≈ 6.94 µM)
- MIC [11]: 1 µg/mL (≈ 3.47 µM)
- MIC [12]: > 32 µg/mL
- MIC [13]: 1 µg/mL (≈ 3.47 µM)
- MIC [14]: 0.5 µg/mL (≈ 1.73 µM)

Structure (SMILES): CCCCOC(=O)CN(C)CC1=C(C(=O)O)N2C(=O)[C@H]([C@@H](C)O)C2S1 (stereo partly drawn)
- MIC [1]: 0.5 µg/mL (≈ 1.34 µM)
- MIC [2]: > 32 µg/mL
- MIC [3]: 0.25 µg/mL (≈ 0.671 µM)
- MIC [4]: 0.5 µg/mL (≈ 1.34 µM)
- MIC [5]: > 32 µg/mL
- MIC [6]: 1 µg/mL (≈ 2.68 µM)
- MIC [7]: > 32 µg/mL
- MIC [8]: > 32 µg/mL
- MIC [9]: 8 µg/mL (≈ 21.5 µM)
- MIC [10]: 16 µg/mL (≈ 43 µM)
- MIC [11]: > 32 µg/mL
- MIC [12]: > 32 µg/mL
- MIC [13]: > 32 µg/mL
- MIC [14]: 32 µg/mL (≈ 85.9 µM)

Structure (SMILES): C[C@@H](O)[C@H]1C(=O)N2C(C(=O)O)=C(SCCNC=N)C[C@H]12 [IMIPENEM ANHYDROUS]
- MIC90 [15]: 0.25 µg/mL (≈ 0.835 µM)
- MIC90 [16]: > 32 µg/mL
- MIC [1]: 0.12 µg/mL (≈ 0.401 µM)
- MIC90 [17]: 0.06 µg/mL (≈ 0.2 µM)
- MIC90 [18]: 1 µg/mL (≈ 3.34 µM)
- MIC90 [19]: 8 µg/mL (≈ 26.7 µM)
- MIC90 [20]: 0.03 µg/mL (≈ 0.1 µM)
- MIC [2]: 0.12 µg/mL (≈ 0.401 µM)
- MIC90 [21]: 0.12 µg/mL (≈ 0.401 µM)
- MIC [3]: < 0.03 µg/mL
- MIC90 [22]: 0.25 µg/mL (≈ 0.835 µM)
- MIC90 [23]: 0.03 µg/mL (≈ 0.1 µM)
- MIC90 [24]: 4 µg/mL (≈ 13.4 µM)
- MIC90 [25]: 0.015 µg/mL (≈ 0.0501 µM)
- MIC [4]: < 0.03 µg/mL
- MIC90 [26]: 0.5 µg/mL (≈ 1.67 µM)
- MIC [5]: 0.25 µg/mL (≈ 0.835 µM)
- MIC90 [27]: 2 µg/mL (≈ 6.68 µM)
- MIC [28]: 1 µg/mL (≈ 3.34 µM)
- MIC [6]: 0.5 µg/mL (≈ 1.67 µM)
- MIC90 [29]: 0.25 µg/mL (≈ 0.835 µM)
- MIC90 [30]: 0.25 µg/mL (≈ 0.835 µM)
- MIC90 [31]: 2 µg/mL (≈ 6.68 µM)
- MIC [7]: 0.25 µg/mL (≈ 0.835 µM)
- MIC90 [32]: 1 µg/mL (≈ 3.34 µM)
- MIC [8]: 0.25 µg/mL (≈ 0.835 µM)
- MIC [9]: 0.5 µg/mL (≈ 1.67 µM)
- MIC90 [33]: 0.03 µg/mL (≈ 0.1 µM)
- MIC90 [34]: 0.06 µg/mL (≈ 0.2 µM)
- MIC [10]: 0.25 µg/mL (≈ 0.835 µM)
- MIC90 [35]: > 64 µg/mL
- MIC90 [36]: 0.015 µg/mL (≈ 0.0501 µM)
- MIC [11]: 0.25 µg/mL (≈ 0.835 µM)
- MIC90 [37]: 2 µg/mL (≈ 6.68 µM)
- MIC [13]: 0.25 µg/mL (≈ 0.835 µM)
- MIC90 [38]: 0.5 µg/mL (≈ 1.67 µM)
- MIC90 [39]: 0.06 µg/mL (≈ 0.2 µM)
- MIC90 [40]: > 64 µg/mL
- MIC90 [41]: 2 µg/mL (≈ 6.68 µM)
- MIC [14]: 0.12 µg/mL (≈ 0.401 µM)
- MIC90 [42]: 2 µg/mL (≈ 6.68 µM)

Structure (SMILES): C[C@@H](O)[C@H]1C(=O)N2C(C(=O)O)=C(CN(C)CC(=O)N(C)C)SC12 (stereo partly drawn)
- MIC [1]: 0.25 µg/mL (≈ 0.728 µM)
- MIC [2]: 0.5 µg/mL (≈ 1.46 µM)
- MIC [3]: 0.12 µg/mL (≈ 0.349 µM)
- MIC [4]: 0.25 µg/mL (≈ 0.728 µM)
- MIC [5]: 0.5 µg/mL (≈ 1.46 µM)
- MIC [6]: 1 µg/mL (≈ 2.91 µM)
- MIC [7]: 1 µg/mL (≈ 2.91 µM)
- MIC [8]: 4 µg/mL (≈ 11.6 µM)
- MIC [9]: 8 µg/mL (≈ 23.3 µM)
- MIC [10]: 4 µg/mL (≈ 11.6 µM)
- MIC [11]: 1 µg/mL (≈ 2.91 µM)
- MIC [12]: > 32 µg/mL
- MIC [13]: 1 µg/mL (≈ 2.91 µM)
- MIC [14]: 0.5 µg/mL (≈ 1.46 µM)
